Assay results reported in patent US9670221B2, “Furopyridines as bromodomain inhibitors” (GlaxoSmithKline Intellectual Property (No.2) Limited, priority 2013, dated 2017).
Where a name gives a salt, the structure may show the parent alone.

Legend:
[1] = tested on: Bromodomains BRD2, BRD3, BRD4 and BRDT (BD1/BD2 single residue mutants); assay: Binding of the fluoroligand to mutated versus non-mutated bromodomain; design: species or system Human; conditions: single residue mutations in the acetyl lysine binding pocket
Method: (§1) Binding was assessed using a time resolved fluorescent resonance energy transfer binding assay. This utilises a 6 His purification tag at the N-terminal of the proteins as an epitope for an anti-6 His antibody labeled with Europium chelate (PerkinElmer AD0111) allowing binding of the Europium to the proteins which acts as the donor fluorophore. A small molecule, high affinity binder of the bromodomains BRD2, BRD3, BRD4 and BRDT has been labeled with Alexa Fluor647 (Reference Compound X) and this acts as the acceptor in the FRET pair.
The binding of the compounds of formula (I) to Bromodomains BRD2, BRD3, BRD4 and BRDT was assessed using mutated proteins to detect differential binding to either Binding Domain 1 (BD1) or Binding Domain 2 (BD2) on the bromodomain. These single residue mutations in the acetyl lysine binding pocket greatly lower the affinity of the fluoroligand (Reference Compound X) for the mutated domain (>1000 fold selective for the non-mutated domain). Therefore in the final assay conditions, binding of the fluoroligand to the mutated domain cannot be detected and subsequently the assay is suitable to determine the binding of compounds to the single non-mutated bromodomain. […]

[2] = target: T1, BRD4 BD1 (Homo sapiens, UniProt O60885, Y390A); assay: TR-FRET binding assay, BRD4 BD1 (mutant protein); conditions: BRD4 (1-477) mutant, 10 nM protein, read-out: pIC50 in the BRD4 BD1 assay (converted)
T1 construct: BRD4 (1-477) (Y97A) and (Y390A); made in house; host or cells: E. coli (pET15b vector)
Method: Time Resolved Fluorescence Resonance Energy Transfer (TR-FRET) Assay
as §1
Assay Principle: In the absence of a competing compound, excitation of the Europium causes the donor to emit at λ618 nm which excites the Alexa labelled bromodomain binding compound leading to an increased energy transfer that is measurable at λ647 […]. In the presence of a sufficient concentration of a compound that can bind these proteins, the interaction is disrupted leading to a quantifiable drop in fluorescent resonance energy transfer.
The binding of the compounds of formula (I) to Bromodomains BRD2, BRD3, BRD4 and BRDT was assessed using mutated proteins to detect differential binding to either Binding Domain 1 (BD1) or Binding Domain 2 (BD2) on the bromodomain. These single residue mutations in the acetyl lysine binding pocket greatly lower the affinity of the fluoroligand (Reference Compound X) for the mutated domain (>1000 fold selective for the non-mutated domain). Therefore in the final assay conditions, binding of the fluoroligand to the mutated domain cannot be detected and subsequently the assay is suitable to determine the binding of compounds to the single non-mutated bromodomain.
Protein production: Recombinant Human Bromodomains [(BRD2 (1-473) (Y113A) and (Y386A), BRD3 (1-435) (Y73A) and (Y348A) BRD4 (1-477) (Y97A) and (Y390A) and BRDT (1-397) (Y66A) and (Y309A)] were expressed in E. coli cells (in pET15b vector for BRD2/3/4 and in pET28a vector for BRDT) with a 6-His tag at the N-terminal. The His-tagged Bromodomain pellet was resuspended in 50 mM HEPES (pH7.5), 300 mM NaCl, 10 mM imidazole & 1 μl/mL protease inhibitor cocktail and extracted from the E. coli cells using sonication and purified using a nickel sepharose high performance column, the proteins were washed and then eluted with a linear gradient of 0-500 mM imidazole with buffer 50 mM HEPES (pH7.5), 150 mM NaCl, 500 mM imidazole, over 20 column volumes. Final purification was completed by Superdex 200 prep grade size exclusion column. Purified protein was stored at −80° C. in 20 mM HEPES pH 7.5 and 100 mM NaCl. Protein identity was confirmed by peptide mass fingerprinting and predicted molecular weight confirmed by mass spectrometry.
Protocol for Bromodomain BRD2, 3, 4 and T, BD1^+BD2 mutant assays: All assay components were dissolved in buffer composition of 50 mM HEPES pH7.4, 50 mM NaCl, 5% Glycerol, 1 mM DTT and 1 mM CHAPS. The final concentration of bromodomain proteins were 10 nM and the Alexa Fluor647 ligand was at Kd. These components were premixed and 5 μl of this reaction mixture was added to all wells containing 50 nl of various concentrations of test compound or DMSO vehicle (0.5% DMSO final) in Greiner 384 well black low volume microtitre plates and incubated in dark for 30 minutes at room temperature. 5 μl of detection mixture containing 1.5 nM final concentration anti-6His Europium chelate was added to all wells and a further dark incubation of at least 30 minutes was performed. Plates were then read on the Envision platereader, (λex=317 nm, donor λem=615 nm; acceptor λem=665 nm; Dichroic LANCE dual). Time resolved fluorescent intensity measurements were made at both emission wavelengths and the ratio of acceptor/donor was calculated and used for data analysis. All data was normalized to the mean of 16 high (inhibitor control—Example 11 of WO 2011/054846A1) and 16 low (DMSO) control wells on each plate. […]

COc1ccc2c(c1)C(c1ccc(Cl)cc1)=N[C@@H](CC(=O)NCCCCCNC(=O)CCCCCC1(C)/C(=C/C=C/C=C/C3=[N+](CCCCS(=O)(=O)O)c4ccc(S(=O)(=O)O)cc4C3(C)C)N(CCCCS(=O)(=O)[O-])c3ccc(S(=O)(=O)O)cc31)c1nnc(C)n1-2 (stereo partly drawn) [Reference Compound X]
selectivity of the fluoroligand for the non-mutated domain over the mutated domain [1]: > 1000 fold

CC(c1cc2c(=O)n(C)cc(-c3ccnc(OCC4CCOCC4)c3)c2o1)N1CCN(S(C)(=O)=O)CC1 (single isomer, unassigned) [Example 21a, 5-methyl-2-(1-(4-(methylsulfonyl)piperazin-1-yl)ethyl)-7-(2-((tetrahydro-2H-pyran-4-yl)methoxy)pyridin-4-yl)furo[3,2-c]pyridin-4(5H)-one]
IC50 [2]: ≤ 100 nM

Cn1cc(-c2ccnc(OCC3CCOCC3)c2)c2oc(CN3CCN(S(C)(=O)=O)CC3)cc2c1=O [Example 7, 5-methyl-2-((4-(methylsulfonyl)piperazin-1-yl)methyl)-7-(2-((tetrahydro-2H-pyran-4-yl)methoxy)pyridin-4-yl)furo[3,2-c]pyridin-4(5H)-one]
IC50 [2]: ≤ 100 nM

CCC(=O)Nc1cc(-c2cn(C)c(=O)c3cc(CN4CCN(S(C)(=O)=O)C[C@H]4C)oc23)ccn1 [Example 25, (R)—N-(4-(5-methyl-2-((2-methyl-4-(methylsulfonyl)piperazin-1-yl)methyl)-4-oxo-4,5-dihydrofuro[3,2-c]pyridin-7-yl)pyridin-2-yl)propionamide]
IC50 [2]: ≤ 100 nM

COc1ccc(-c2cn(C)c(=O)c3cc(CN4CCN(S(C)(=O)=O)C[C@H]4C)oc23)cc1OC [Example 10, (R)-7-(3,4-dimethoxyphenyl)-5-methyl-2-((2-methyl-4-(methylsulfonyl)piperazin-1-yl)methyl)furo[3,2-c]pyridin-4(5H)-one]
IC50 [2]: ≤ 100 nM

Cn1cc(-c2ccncc2NCC2CC2)c2oc(CN3CCN(S(C)(=O)=O)CC3)cc2c1=O [Example 39, 7-(3-((cyclopropylmethyl)amino)pyridin-4-yl)-5-methyl-2-((4-(methylsulfonyl)piperazin-1-yl)methyl)furo[3,2-c]pyridin-4(5H)-one]
IC50 [2]: ≤ 100 nM

C[C@@H]1CN(S(C)(=O)=O)CCN1Cc1cc2c(=O)n(C)cc(-c3ccncc3OCCF)c2o1 [Example 72, (R)-7-(3-(2-fluoroethoxy)pyridin-4-yl)-5-methyl-2-((2-methyl-4-(methylsulfonyl)piperazin-1-yl)methyl)furo[3,2-c]pyridin-4(5H)-one]
IC50 [2]: ≤ 100 nM

C[C@@H]1CN(S(C)(=O)=O)CCN1Cc1cc2c(=O)n(C)cc(-c3ccncc3OCC3COC3)c2o1 [Example 46, (R)-5-methyl-2-((2-methyl-4-(methylsulfonyl)piperazin-1-yl)methyl)-7-(3-(oxetan-3-ylmethoxy)pyridin-4-yl)furo[3,2-c]pyridin-4(5H)-one]
IC50 [2]: ≤ 100 nM

CC(=O)N(C)c1cc(-c2cn(C)c(=O)c3cc(CN4CCN(S(C)(=O)=O)C[C@H]4C)oc23)ccn1 [Example 30, (R)—N-methyl-N-(4-(5-methyl-2-((2-methyl-4-(methylsulfonyl)piperazin-1-yl)methyl)-4-oxo-4,5-dihydrofuro[3,2-c]pyridin-7-yl)pyridin-2-yl)acetamide]
IC50 [2]: ≤ 100 nM

Cn1cc(-c2ccncc2OCC2CC2)c2oc(CN3CCCNCC3)cc2c1=O [Example 55, 2-((1,4-diazepan-1-yl)methyl)-7-(3-(cyclopropylmethoxy)pyridin-4-yl)-5-methylfuro[3,2-c]pyridin-4(5H)-one hydrochloride]
IC50 [2]: ≤ 100 nM

C[C@@H]1CN(S(C)(=O)=O)CCN1Cc1cc2c(=O)n(C)cc(-c3ccncc3OCC3CCCO3)c2o1 (stereo partly drawn) [Example 70, 5-methyl-2-(((R)-2-methyl-4-(methylsulfonyl)piperazin-1-yl)methyl)-7-(3-((tetrahydrofuran-2-yl)methoxy)pyridin-4-yl)furo[3,2-c]pyridin-4(5H)-one]
IC50 [2]: ≤ 100 nM

CC(=O)Nc1cccc(-c2cn(C)c(=O)c3cc(CN4CCN(S(C)(=O)=O)CC4)oc23)c1 [Example 48, N-(3-(5-methyl-2-((4-(methylsulfonyl)piperazin-1-yl)methyl)-4-oxo-4,5-dihydrofuro[3,2-c]pyridin-7-yl)phenyl)acetamide]
IC50 [2]: ≤ 100 nM

C[C@@H]1CN(S(C)(=O)=O)CCN1Cc1cc2c(=O)n(C)cc(-c3ccncc3OCC3CCO3)c2o1 (stereo partly drawn) [Example 41, 5-methyl-2-(((R)-2-methyl-4-(methylsulfonyl)piperazin-1-yl)methyl)-7-(3-(oxetan-2-ylmethoxy)pyridin-4-yl)furo[3,2-c]pyridin-4(5H)-one]
IC50 [2]: ≤ 100 nM

CC(=O)Nc1cncc(-c2cn(C)c(=O)c3cc(CN4CCN(S(C)(=O)=O)C[C@H]4C)oc23)c1 [Example 38, (R)—N-(5-(5-methyl-2-((2-methyl-4-(methylsulfonyl)piperazin-1-yl)methyl)-4-oxo-4,5-dihydrofuro[3,2-c]pyridin-7-yl)pyridin-3-yl)acetamide]
IC50 [2]: ≤ 100 nM

Cn1cc(-c2cccc(NCc3ccccc3)c2)c2oc(CN3CCN(S(C)(=O)=O)CC3)cc2c1=O [Example 4, 7-(3-(benzylamino)phenyl)-5-methyl-2-((4-(methylsulfonyl)piperazin-1-yl)methyl)furo[3,2-c]pyridin-4(5H)-one]
IC50 [2]: ≤ 100 nM

COc1ccc(-c2cn(C)c(=O)c3cc(CN4CCN(S(C)(=O)=O)CC4)oc23)cc1OC [Example 1, 7-[3,4-bis(methyloxy)phenyl]-5-methyl-2-{[4-(methylsulfonyl)-1-piperazinyl]methyl}furo[3,2-c]pyridin-4(5H)-one]
IC50 [2]: ≤ 100 nM

C[C@@H]1CN(S(C)(=O)=O)CCN1Cc1cc2c(=O)n(C)cc(-c3ccnc(NC(=O)C4CC4)c3)c2o1 [Example 24, (R)—N-(4-(5-methyl-2-((2-methyl-4-(methylsulfonyl)piperazin-1-yl)methyl)-4-oxo-4,5-dihydrofuro[3,2-c]pyridin-7-yl)pyridin-2-yl)cyclopropanecarboxamide]
IC50 [2]: ≤ 100 nM

CC(Oc1cncc(-c2cn(C)c(=O)c3cc(CN4CCN(S(C)(=O)=O)CC4)oc23)c1)c1ccccc1 (stereo not drawn) [Example 12, 5-methyl-2-((4-(methylsulfonyl)piperazin-1-yl)methyl)-7-(5-(1-phenylethoxy)pyridin-3-yl)furo[3,2-c]pyridin-4(5H)-one]
IC50 [2]: ≤ 100 nM

CC(=O)N1CCN(Cc2cc3c(=O)n(C)cc(-c4ccnc(OCC5CCOCC5)c4)c3o2)C(C)C1 (stereo not drawn) [Example 47, 2-((4-acetyl-2-methylpiperazin-1-yl)methyl)-5-methyl-7-(2-((tetrahydro-2H-pyran-4-yl)methoxy)pyridin-4-yl)furo[3,2-c]pyridin-4(5H)-one hydrochloride]
IC50 [2]: ≤ 100 nM

C[C@@H]1CN(S(C)(=O)=O)CCN1Cc1cc2c(=O)n(C)cc(-c3ccnc(OCC4CC4)c3)c2o1 [Example 23, (R)-7-(2-(cyclopropylmethoxy)pyridin-4-yl)-5-methyl-2-((2-methyl-4-(methylsulfonyl)piperazin-1-yl)methyl)furo[3,2-c]pyridin-4(5H)-one]
IC50 [2]: ≤ 100 nM

CC(=O)Nc1cc(-c2cn(C)c(=O)c3cc(CN4CCC(=O)NCC4C)oc23)ccn1 (stereo not drawn) [Example 100, N-(4-(5-methyl-2-((2-methyl-5-oxo-1,4-diazepan-1-yl)methyl)-4-oxo-4,5-dihydrofuro[3,2-c]pyridin-7-yl)pyridin-2-yl)acetamide]
IC50 [2]: ≤ 100 nM
